# Data published in patent US8252748B2, “Peptide derived from neurotensin receptor 3 and use thereof in the treatment of psychiatric diseases” (Centre National de la Recherche Scientifique—CNRS, priority 2007, dated 2012).
# No end group written: not given here.
# Tests used:
# mouse (C57Black/J) = assay: Conditioned motility suppression test (CMST); assay type: in vivo; details: propeptide IV 100 μl at 1 μM per animal; 30 min after injection
# Text: The inventors conducted three types of behavioral experiments that are regarded as classical for determining the antidepressant activity of a substance (Nestler E. J., Gould E., Manji H., Buncan M., Duman R. S., Greshenfeld H. K., Hen, R. et al. “Preclinical models: status of basic research in depression” Biol Psychiatry. 15, 503-528 (2002) (20) and Cryan, J. & Holmes, A. “The ascent of mouse: advances in modeling human depression and anxiety” Nat Rev Drug Discov. 4, 775-790 (2005) (21)). The effects of the propeptide of the present invention were compared with those of the saline solution in which it is dissolved and with those of fluoxetine, one of the most-used antidepressants in clinical practice. The mouse strain used is C57Black/J strain. TREK-1^−/− mice were also measured in these various tests.
# In the next two tests, the propeptide of the present invention was administered by the IV route at a rate of 100 μl at 1 μM per animal.
# C. Conditioned Motility Suppression Test (CMST) (see Daugé, V., Sebret, A., Beslot, F., Matsui, T., & Rogues B. “Behavioral profile of CCK2 receptor-deficient mice” Neuropsychopharmacol; 25: 690-698 (2001) (23).
# The experiment consists of conditioning the mouse on day 1, and measuring the effects of the substances on day 2.
# On day 1, each mouse is placed in a box where the floor is a metal grille connected to an electric stimulator. […]
# [1] = tested on: hippocampus progenitor cells; assay: Hippocampal neurogenesis (BrdU-positive cells), 2 weeks of treatment; assay type: in vivo, mouse; details: 10 μM propeptide injected for 2 weeks
# Experimental: Treatments with antidepressants are known to increase neurogenesis in the hippocampus (Santarelli, L., Saxe, M, Gross, C, Surget, A, Battaglia, F, Dulawa, S, Weisstaub, N, Lee, J, Duman, R, Arancio, O, Belzung, C, Hen, R et al. “Requirement of hippocampal neurogenesis for the behavioral effects of antidepressants” Science, 301: 805-809 (2003) (24). This cellular proliferation is measured from the increase of “progenitor” cells that incorporate a marker, 5-bromo-2-deoxyuridine (BrdU), and are transformed to mature neurons. The BrdU is detected by immunohistochemistry.
# On day 1, the animals are injected IP with 300 μl of an aqueous solution of 10 mM of BrdU, then put back in the cage.
# On day 2, the animals are euthanased and then the tissues are fixed by intracardiac perfusion of a cold solution of 4% paraformaldehyde. The brains are removed and then frozen at −20° C.
# Series of 40 μm sections are prepared, so as to cover the entire hippocampal structure, using a vibratome (Leica). One section out of six is retained for measuring the incorporation of BrdU by means of a monoclonal mouse anti-BrdU antibody (Becton Dickinson). […] The peroxidase activity is visualized by hydrolysis of DAB. The cells labeled in this way are counted on each section. […]
# C57BL6/J mice [2] = assay: Tail flick test of sensitivity to pain; assay type: in vivo, mouse; details: bath at 48° C.; 100 μl at 10^−6 M; 30 minutes after injection
# Experimental: This test consists of immersing the tail of a mouse in a bath at 48° C. and measuring the time it takes to withdraw it from the bath. Before any injections, a habituation test was carried out on the mouse. It consists of immersing the tail of each animal twice in the bath so as to have homogeneous groups before any treatment (obtaining a reaction time less than 12 seconds). Then the mice were injected with 100 μl of physiological saline solution (“PHYS SALINE”) or 100 μl of peptide of sequence ID No. 2 at a concentration of 10^−6 M (“PE 10^−6M”).
# The mice used were C57BL6/J mice. Each group was constituted of 10 mice.
# The measurements were taken 30 minutes after injection.
# (§1) The difference was evaluated using the Student t test.
# C57BL6/J mice [3] = assay: Focal ischemia (middle cerebral artery occlusion), infarct size; assay type: in vivo, mouse; details: daily IP 100 μl at 10^−5 M for a week, vs physiological saline
# Experimental: The model used for inducing a CVA is that of focal ischemia, which consists of occlusion of the middle cerebral artery with a thread (Heurteaux C., Laigle, C., Blondeau, N., Jarretou, G., Lazdunski, M. “Alpha-linolenic acid and riluzole treatment confer cerebral protection and improve survival after focal brain ischemia” Neuroscience, 137: 241-251 (2006) (27). The size of the infarcts caused by this focal ischemia was measured after staining brain sections with cresyl violet. The infarct is measured by tracing the contour of the infarct zone by an image analysis system (Olympus DP Soft) according to the method described in Heurteaux et al., 2006 (27). The brains of C57BL6/J mice (at the rate of 10 mice per experimental group) are treated for a week with a daily intraperitoneal injection of 100 μl of a solution containing either the peptide of sequence ID No. 2 at a concentration of 10^−5M (“PE 10^−5M” group), or with a solution of physiological saline solution (“PHYS SALINE” group). The values were compared between the two groups.
# as §1
sequence,measurement,setting,value
"APLPRWSGPIGVSWGLR [propeptide, APLPRWSGPIGVSWGLR]",motility relative to untreated shocked mice,mouse (C57Black/J),7 times greater
same,neurogenesis (BrdU-labeled cells),[1],considerable neurogenesis comparable to that induced by fluoxetine
same,time to withdraw tail from bath,C57BL6/J mice [2],8.3 ± 0.7 s
same,size of the infarct caused by focal ischemia,C57BL6/J mice [3],does not have a significant effect
